Literature values in patent US20150182553A1, “USE OF POLYMER D-LACTIC ACID (PDLA) TO TREAT MALARIA” (priority 2013, published 2015).

Assays:
[1] = tested on: mitochondrial respiration of L-lactate; conditions: brain and heart
[2] = metabolite of PDLA

**Q.** For `C[C@@H](O)C(=O)O` [D-lactic acid], which “effect on mitochondrial respiration of L-lactate” value [1] is on record?
**A.** The value was “block mitochondrial respiration of L-lactate in the brain and heart”.

**Q.** And the “average plasma concentration that may be related to reversible symptoms of altered mental status, dysarthria, and ataxia” value [2]?
**A.** The value was 7.98 mM.
